“Also recorded” adds a separate entry of the source. Like-named read-outs stand apart in the source and are kept apart here. Each block holds one compound with its values, some of them ahead of it. Where a SMILES comes first, the peptide text is derived from it. Bridges are numbered along the chain shown (N, C = ends). [ ]: non-standard residue; d: D form. Orn(fluoroacetimidoyl) = N=C(CF)NCCC[C@H](N)C(=O)O
Key:
PADI4 [1] = conditions: cited from earlier work
PADI4 [2] = target: T1, PADI4 (Homo sapiens, UniProt Q9UM07); test: COLDER inhibition assay, BAEE substrate, with or without 1 h preincubation; format: biochemical; conditions: for remaining activity at 0.003 µM: peptide 0.003 µM; for remaining activity at 0.01 µM: peptide 0.01 µM; for remaining activity at 3 µM: peptide 3 µM; for remaining activity at 30 µM: peptide 30 µM
T1 construct: His6; made in house
Procedure, shortened: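 50 nM His-PADI4 with peptide (final 0.1× the 0.03-500 µM series), 0.6 mg/mL BSA, 10 mM CaCl2 in 50 mM HEPES, 150 mM NaCl, 2 mM DTT, pH 7.5, with or without 1 h preincubation before 10 mM BAEE. After 30 min at rt, EDTA-quenched; citrulline read colorimetrically at 540 nm; mean ± SEM, ≥2 replicates.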

PADI4 [3] = target: T1, PADI4; test: Surface plasmon resonance (SPR), single cycle kinetics; format: binding
Procedure, shortened: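 Biotinylated His-PADI4 captured on CAP chip (~3000 RU); peptides as 5-point 3-fold series in HEPES, 150 mM NaCl, 10 mM CaCl2, 0.1% DMSO, pH 7.5, triplicate. Warhead peptides fitted two-state (k-2 = 0; Ki = k-1/k+1, kinact = k+2); others 1:1.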

PADI4 [4] = target: T1, PADI4; test: Intact mass spectrometry of covalent labelling; format: binding; conditions: 20 µM PADI4, 200 µM peptide, 1 hour at rt
PADI4 C645A = target: T2, PADI4 C645A (Homo sapiens, UniProt Q9UM07, C645A); test: Intact mass spectrometry of covalent labelling; format: binding; conditions: 20 µM protein, 200 µM peptide, 1 hour at rt
T2 construct: PADI4 (residues 1-663); made in house; host or cells: E. coli NiCo21(DE3)

[5] = 1 h, T=1 (1 h preincubation), read-out: PADI4 activity, dose-response data of Figure S15 (individual replicates)
[6] = T=0 (no preincubation), read-out: PADI4 activity, dose-response data of Figure S15 (individual replicates)

T1 sequence (Q9UM07 whole entry): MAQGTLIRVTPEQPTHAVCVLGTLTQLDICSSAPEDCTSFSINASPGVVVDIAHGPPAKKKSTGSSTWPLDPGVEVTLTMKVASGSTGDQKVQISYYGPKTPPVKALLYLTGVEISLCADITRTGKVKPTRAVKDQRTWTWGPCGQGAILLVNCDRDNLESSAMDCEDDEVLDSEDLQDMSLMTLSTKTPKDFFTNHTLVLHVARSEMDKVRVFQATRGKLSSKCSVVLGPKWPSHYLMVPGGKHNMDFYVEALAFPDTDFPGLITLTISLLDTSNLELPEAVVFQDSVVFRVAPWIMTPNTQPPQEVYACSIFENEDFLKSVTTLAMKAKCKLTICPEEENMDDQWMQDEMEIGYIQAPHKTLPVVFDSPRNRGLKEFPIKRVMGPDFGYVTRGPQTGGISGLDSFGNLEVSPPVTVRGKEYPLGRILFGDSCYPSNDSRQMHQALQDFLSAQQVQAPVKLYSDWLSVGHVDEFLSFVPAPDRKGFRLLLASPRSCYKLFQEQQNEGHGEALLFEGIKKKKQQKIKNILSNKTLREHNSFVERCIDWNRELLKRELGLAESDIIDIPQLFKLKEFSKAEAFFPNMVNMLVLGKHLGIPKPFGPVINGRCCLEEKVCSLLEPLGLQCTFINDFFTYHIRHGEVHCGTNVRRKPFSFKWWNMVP
T2 sequence (Q9UM07 whole entry C645A, the tested form may be a part): as the sequence (Q9UM07 whole entry) above, with C645A counted along it

SMILES: N=C(CF)NCCC[C@H](NC(=O)c1ccccc1)C(N)=O [Fluoroamidine]
selectivity for PADI4 over PADI1 (PADI4 [1]): limited selectivity

remaining activity at 0.003 µM (PADI4 [2]; [5]): 108%
remaining activity at 0.01 µM (PADI4 [2]; [5]): 111%
remaining activity at 3 µM (PADI4 [2]; [5]): 87.4%
remaining activity at 30 µM (PADI4 [2]; [5]): 21.7%
remaining activity at 0.003 µM (PADI4 [2]; [6]): 103%
remaining activity at 0.01 µM (PADI4 [2]; [6]): 104%
remaining activity at 0.03 µM (PADI4 [2]; T=0 (no preincubation), peptide 0.03 µM, read-out: PADI4 activity, dose-response data of Figure S15 (individual replicates)): 101%
remaining activity at 0.1 µM (PADI4 [2]; T=0 (no preincubation), peptide 0.1 µM, read-out: PADI4 activity, dose-response data of Figure S15 (individual replicates)): 105%
remaining activity at 0.3 µM (PADI4 [2]; T=0 (no preincubation), peptide 0.3 µM, read-out: PADI4 activity, dose-response data of Figure S15 (individual replicates)): 105%
remaining activity at 1 µM (PADI4 [2]; T=0 (no preincubation), peptide 1 µM, read-out: PADI4 activity, dose-response data of Figure S15 (individual replicates)): 102%
remaining activity at 3 µM (PADI4 [2]; [6]): 101%
remaining activity at 10 µM (PADI4 [2]; T=0 (no preincubation), peptide 10 µM, read-out: PADI4 activity, dose-response data of Figure S15 (individual replicates)): 96.7%
remaining activity at 30 µM (PADI4 [2]; [6]): 86.3%
k2 / kinact (PADI4 [3]; each replicate): 0.0029 s⁻¹
k-1 (PADI4 [3]; each replicate): 0.00088 s⁻¹
kinact (PADI4 [3]; each replicate, read-out: k2 / kinact): 0.0025 s⁻¹
binding to PADI4 by SPR (PADI4 [3]; in words): among some of the poorest binders
kinact (PADI4 [3]; two-state reaction model, k+2, read-out: SPR kinact (converted)): 0.00267 s⁻¹
Ki (PADI4 [3]; two-state reaction model, k-1/k+1): 4.3 ± 3.1 µM
covalent labelling of PADI4 C645A by intact MS (PADI4 C645A): no labelling
SMILES: CC[C@H](C)[C@@H]1NC(=O)[C@@H](Cc2ccc(O)cc2)NC(=O)CSC[C@@H](C(=O)NCC(N)=O)NC(=O)[C@H]([C@@H](C)O)NC(=O)[C@H](C(C)C)NC(=O)[C@H](CC(=O)O)NC(=O)[C@H](CCCNC(=N)CF)NC(=O)[C@H](CC(C)C)NC(=O)[C@H](CC(=O)O)NC(=O)[C@H](Cc2c[nH]c3ccccc23)NC1=O [cP4_13] ({CH2CO}-[dY]IWDL[Orn(fluoroacetimidoyl)]DVTCG-NH2; thioether N-10)
inhibition of PADI4 activity (PADI4 [2]; COLDER, in words): Neither peptide had strong inhibitory activity
covalent labelling of PADI4 by intact MS (PADI4 [4]): single; also recorded: covalently bind to C645 of PADI4
